Data published in patent publication US9840478B2 (MERCK SHARP & DOHME CORP., priority 2013, dated 2017).
pIC50: −log10 of the molar value.

Each compound was assayed on HIV-1 (H9IIIB strain) (assay: Cell-based HIV infection assay using a reporter (Cell-Based), MT4-GFP cells). Settings: Human immunodeficiency virus 1, MT4-GFP cells infected with HIV-1 H9IIIB; 50% normal human serum; mean of at least two independent experiments; read-out: Cell-based IP.
In short: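 MT4-GFP cells (HIV LTR-driven GFP) infected 24 h with HIV-1 H9IIIB at low MOI, then washed and plated with compounds in RPMI + 50% normal human serum, 0.4% DMSO final. Green cells counted at 24 and 48 h; R0 = 48 h/24 h ratio, inhibition normalized to DMSO and triple-drug control; IC50 from 4-parameter fit.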

SMILES | pIC50
COC(=O)N[C@H](C(=O)Nc1cccc(F)c1CC[C@H]1CNC[C@H](C)N1S(=O)(=O)c1ccccc1)[C@H](c1cncc(F)c1)c1cccc(Cl)c1 [Example 253, (βS)-3-chloro-N-(3-fluoro-2-{2-[(2S,6S)-6-methyl-1-(phenylsulfonyl)piperazin-2-yl]ethyl}phenyl)-β-(5-fluoropyridin-3-yl)-Nα-(methoxycarbonyl)-L-phenylalaninamide] | 7.62
CC(C)[C@H](c1ccc(Cl)cc1)[C@H](N)C(=O)Nc1cncc(F)c1CC[C@H]1CNC[C@@H](C)N1S(=O)(=O)c1ccccc1 [Example 254, (βR)-4-chloro-N-(5-fluoro-4-{2-[(2S,6R)-6-methyl-1-(phenylsulfonyl)piperazin-2-yl]ethyl}pyridin-3-yl)-β-(1-methylethyl)-L-phenylalaninamide] | 7.80
C[C@@H]1CNC[C@H](CCc2c(F)cccc2NC(=O)[C@@H](N)[C@@H](c2ccc(F)cc2)c2cc(F)cc(F)c2)N1S(=O)(=O)c1ccc(OC(F)(F)F)cc1 [Example 255, (βS)-β-(3,5-difluorophenyl)-4-fluoro-N-(3-fluoro-2-{2-[(2S,6R)-6-methyl-1-{[4-(trifluoromethoxy)phenyl]sulfonyl}piperazin-2-yl]ethyl}phenyl)-L-phenylalaninamide] | 7.23
COC(=O)N[C@H](C(=O)Nc1cccc(F)c1CC[C@H]1CNC[C@@H](C)N1S(=O)(=O)C1CC1)[C@@H](c1ccc(F)cc1)c1cc(F)cc(F)c1 [Example 257, (βS)-N-(2-{2-[(2S,6R)-1-(cyclopropylsulfonyl)-6-methylpiperazin-2-yl]ethyl}-3-fluorophenyl)-β-(3,5-difluorophenyl)-4-fluoro-Nα-(methoxycarbonyl)-L-phenylalaninamide] | 7.57
C[C@H]1CNC[C@H](CCc2c(F)cccc2NC(=O)[C@@H](N)[C@@H](c2ccc(F)cc2)c2cc(F)cc(F)c2)N1S(C)(=O)=O [Example 258, (βS)-β-(3,5-difluorophenyl)-4-fluoro-N-(3-fluoro-2-{2-[(2S,6S)-6-methyl-1-(methylsulfonyl)piperazin-2-yl]ethyl}phenyl)-L-phenylalaninamide] | 7.51
C[C@@H]1CNC[C@H](CCc2c(F)cccc2NC(=O)[C@@H](N)[C@H](c2cncc(F)c2)c2cccc(Cl)c2)N1S(=O)(=O)c1ccccc1 [Example 261, (βS)-3-chloro-N-(3-fluoro-2-{2-[(2S,6R)-6-methyl-1-(phenylsulfonyl)piperazin-2-yl]ethyl}phenyl)-β-(5-fluoropyridin-3-yl)-L-phenylalaninamide] | 7.15
CC[C@H]1CNC[C@H](CCc2c(F)cccc2NC(=O)[C@@H](N)[C@@H](c2ccc(F)cc2)c2cc(F)cc(F)c2)N1S(C)(=O)=O [Example 262, (βS)-β-(3,5-difluorophenyl)-N-(2-{2-[(2S,6S)-6-ethyl-1-(methylsulfonyl)piperazin-2-yl]ethyl}-3-fluorophenyl)-4-fluoro-L-phenylalaninamide] | 7.60
CC[C@@H]1CNC[C@H](CCc2c(F)cccc2NC(=O)[C@@H](N)[C@@H](c2ccc(F)cc2)c2cc(F)cc(F)c2)N1S(C)(=O)=O [Example 263, (βS)-β-(3,5-difluorophenyl)-N-(2-{2-[(2S,6R)-6-ethyl-1-(methylsulfonyl)piperazin-2-yl]ethyl}-3-fluorophenyl)-4-fluoro-L-phenylalaninamide] | 7.11
C[C@@H]1CNC[C@H](CCc2c(F)cccc2NC(=O)[C@@H](N)[C@@H](c2ccc(Cl)cc2)C2CCOCC2)N1S(=O)(=O)c1ccc(C(F)F)cc1 [Example 264, (βR)-4-chloro-N-(2-{2-[(2S,6R)-1-{[4-(difluoromethyl)phenyl]sulfonyl}-6-methylpiperazin-2-yl]ethyl}-3-fluorophenyl)-β-(tetrahydro-2H-pyran-4-yl)-L-phenylalaninamide] | 7.16
CC[C@@H]1CNC[C@H](CCc2c(F)cccc2NC(=O)[C@@H](N)[C@@H](c2ccc(Cl)cc2)C2CCOCC2)N1S(C)(=O)=O [Example 265, (βR)-4-chloro-N-(2-{2-[(2S,6R)-6-ethyl-1-(methylsulfonyl)piperazin-2-yl]ethyl}-3-fluorophenyl)-β-(tetrahydro-2H-pyran-4-yl)-L-phenylalaninamide] | 6.59
COC(=O)NC(C(=O)Nc1cccc(F)c1CC[C@H]1CNC[C@@H](C)N1S(=O)(=O)c1ccc(C(F)F)cc1)[C@@H](c1ccc(Cl)cc1)C1CCOCC1 (stereo partly drawn) [Example 266] | 7.59
CC[C@@H]1CNC[C@H](CCc2c(F)cccc2NC(=O)[C@@H](NC(=O)OC)[C@@H](c2ccc(Cl)cc2)C2CCOCC2)N1S(=O)(=O)c1ccccc1 [Example 267, methyl ((1R,2S)-1-(4-chlorophenyl)-3-((2-(2-((2S,6R)-6-ethyl-1-(phenylsulfonyl)piperazin-2-yl)ethyl)-3-fluorophenyl)amino)-3-oxo-1-(tetrahydro-2H-pyran-4-yl)propan-2-yl)carbamate] | 7.62
CC[C@H]1CNC[C@H](CCc2c(F)cccc2NC(=O)[C@@H](NC(=O)OC)[C@@H](c2ccc(Cl)cc2)C2CCOCC2)N1S(=O)(=O)c1ccccc1 [Example 268, methyl ((1R,2S)-1-(4-chlorophenyl)-3-((2-(2-((2S,6S)-6-ethyl-1-(phenylsulfonyl)piperazin-2-yl)ethyl)-3-fluorophenyl)amino)-3-oxo-1-(tetrahydro-2H-pyran-4-yl)propan-2-yl) carbamate] | 7.85
CC[C@H]1CNC[C@H](CCc2c(F)cccc2NC(=O)[C@@H](NC(=O)OC)[C@@H](c2ccc(F)cc2)c2cc(F)cc(F)c2)N1S(C)(=O)=O [Example 269, (βS)-β-(3,5-difluorophenyl)-N-(2-{2-[(2S,6S)-6-ethyl-1-(methylsulfonyl)piperazin-2-yl]ethyl}-3-fluorophenyl)-4-fluoro-Nα-(methoxycarbonyl)-L-phenylalaninamide] | 8.00
CC[C@@H]1CNC[C@H](CCc2c(F)cccc2NC(=O)[C@@H](NC(=O)OC)[C@@H](c2ccc(F)cc2)c2cc(F)cc(F)c2)N1S(C)(=O)=O [Example 270, (βS)-β-(3,5-difluorophenyl)-N-(2-{2-[(2S,6R)-6-ethyl-1-(methylsulfonyl)piperazin-2-yl]ethyl}-3-fluorophenyl)-4-fluoro-Nα-(methoxycarbonyl)-L-phenylalaninamide] | 7.62

Same assay, conditions: MT4-GFP cells infected with HIV-1 H9IIIB; 50% normal human serum; mean of at least two independent experiments; read-out: Cell-based IP

SMILES | pIC50
CC(C)OCC1CNC[C@H](CCc2c(F)cccc2NC(=O)[C@@H](N)[C@@H](c2ccc(F)cc2)c2cc(F)cc(F)c2)N1S(=O)(=O)C1CC1 (stereo partly drawn) [Example 256, (βS)-N-[2-(2-{(2S)-1-(cyclopropylsulfonyl)-6-[(1-methylethoxy)methyl]piperazin-2-yl}ethyl)-3-fluorophenyl]-β-(3,5-difluorophenyl)-4-fluoro-L-phenylalaninamide] | 7.14
COC(=O)N[C@H](C(=O)Nc1cccc(F)c1CC[C@H]1CNC[C@H](C)N1S(C)(=O)=O)[C@@H](c1ccc(F)cc1)c1cc(F)cc(F)c1 [Example 259, (βS)-β-(3,5-difluorophenyl)-4-fluoro-N-(3-fluoro-2-{2-[(2S,6S)-6-methyl-1-(methylsulfonyl)piperazin-2-yl]ethyl}phenyl)-Nα-(methoxycarbonyl)-L-phenylalaninamide] | 7.74
COCC1CNC[C@H](CCc2c(F)cccc2NC(=O)[C@@H](N)[C@@H](c2ccc(Cl)cc2)C2CCOCC2)N1S(C)(=O)=O (stereo partly drawn) [Example 260, (βR)-4-chloro-N-(3-fluoro-2-{2-[(2S)-6-(methoxymethyl)-1-(methylsulfonyl)piperazin-2-yl]ethyl}phenyl)-β-(tetrahydro-2H-pyran-4-yl)-L-phenylalaninamide] | 6.85
